From US5320825A, “Serotonin reuptake inhibitors for S.P.E.C.T. imaging” (Trustees of the University of Pennsylvania, priority 1991, dated 1994)
Where a name gives a salt, the structure may show the parent alone. Read-outs that look alike come from different tables or passages of the source.

How the values were obtained:
rat brain sections = details: ex vivo autoradiography, 2 hr. post i.v. injection, paroxetine 10 mg/Kg, i.p.
[1] = system: prefrontal cortex membrane of rat brain; details: in vitro
[2] = for Biodistribution, Blood / Biodistribution, Brain / Biodistribution, Heart / Biodistribution, Kidney / Biodistribution, Liver / Biodistribution, Lung / Biodistribution, Muscle / Biodistribution, Skin / Biodistribution, Spleen / Biodistribution, Thyroid: rat, iv
[3] = biological target: norepinephrine (NE) reuptake system; details: rat synaptosomes; read-out: Inhibition of monoamine uptake, NE (Ki); cited from earlier work
[4] = biological target: dopamine (DA) reuptake system; details: read-out: Inhibition of monoamine uptake, DA (Ki), cited from earlier work
[5] = biological target: serotonin reuptake system (5-HT); details: read-out: Inhibition of monoamine uptake, 5-HT (Ki), cited from earlier work
[6] = biological target: norepinephrine reuptake sites (Rattus norvegicus, UniProt Q63380); assay: in vitro competitive binding assay, norepinephrine uptake sites, [3H]-Nisoxetine; details: rat brain tissue preparation
norepinephrine reuptake sites, sequence (Q63380 1-617): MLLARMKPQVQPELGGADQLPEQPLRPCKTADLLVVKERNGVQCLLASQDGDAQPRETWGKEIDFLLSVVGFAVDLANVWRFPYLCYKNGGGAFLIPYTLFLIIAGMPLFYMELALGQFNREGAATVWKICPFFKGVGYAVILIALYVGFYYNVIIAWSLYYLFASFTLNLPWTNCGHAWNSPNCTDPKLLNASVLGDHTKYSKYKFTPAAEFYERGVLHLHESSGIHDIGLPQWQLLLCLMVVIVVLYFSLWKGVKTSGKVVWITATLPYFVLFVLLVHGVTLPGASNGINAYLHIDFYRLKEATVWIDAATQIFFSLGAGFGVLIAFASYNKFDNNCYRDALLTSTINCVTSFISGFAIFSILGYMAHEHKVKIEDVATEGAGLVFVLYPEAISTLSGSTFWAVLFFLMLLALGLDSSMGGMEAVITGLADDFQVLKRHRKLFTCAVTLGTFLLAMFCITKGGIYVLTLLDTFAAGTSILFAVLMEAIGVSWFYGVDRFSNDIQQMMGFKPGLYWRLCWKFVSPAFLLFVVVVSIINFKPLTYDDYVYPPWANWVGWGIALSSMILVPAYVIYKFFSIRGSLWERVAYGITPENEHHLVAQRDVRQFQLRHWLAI
Source text: (§1) The affinity of the compounds prepared in Examples 1-4 to serotonin and norepinephrine uptake sites was studied using in vitro competitive binding assays.

serotonin reuptake sites = biological target: T1, serotonin reuptake sites (Rattus norvegicus, UniProt P31652); assay: in vitro competitive binding assay, serotonin uptake sites, [3H]-Paroxetine
T1 construct: in rat brain tissue preparation; from tissue
T1 sequence (P31652 whole entry): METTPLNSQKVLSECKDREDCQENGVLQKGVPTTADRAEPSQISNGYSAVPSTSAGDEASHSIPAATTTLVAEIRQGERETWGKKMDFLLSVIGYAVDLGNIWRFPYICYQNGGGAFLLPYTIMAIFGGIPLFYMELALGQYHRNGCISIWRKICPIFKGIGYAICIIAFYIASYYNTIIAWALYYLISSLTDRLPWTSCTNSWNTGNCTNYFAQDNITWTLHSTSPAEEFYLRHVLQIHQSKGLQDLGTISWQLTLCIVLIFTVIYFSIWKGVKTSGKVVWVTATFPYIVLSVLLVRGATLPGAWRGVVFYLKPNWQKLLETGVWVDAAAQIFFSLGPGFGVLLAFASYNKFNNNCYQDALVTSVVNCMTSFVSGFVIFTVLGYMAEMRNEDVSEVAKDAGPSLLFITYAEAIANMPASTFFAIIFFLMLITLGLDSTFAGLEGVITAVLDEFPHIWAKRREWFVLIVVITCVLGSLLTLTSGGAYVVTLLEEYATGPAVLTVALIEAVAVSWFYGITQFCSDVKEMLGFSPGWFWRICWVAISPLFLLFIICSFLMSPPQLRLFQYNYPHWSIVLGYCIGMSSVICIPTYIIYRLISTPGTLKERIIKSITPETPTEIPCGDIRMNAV
Source text: as §1

[7] = Biodistribution of compound 7 in rats after an iv injection; type: in vivo; details: rat
Description: The biodistribution of [R]-(-)-N-methyl-3-phenyl-3-(4-^123 I-2-methylphenoxy)propylamine hydrochloride (compound 7) in rats, after intravenous injection, was analyzed. Results are presented in Table 4 and indicate that moderate brain uptake (0.64-0.84% dose/organ) is found consistently throughout the two hour period.

[8] = n = 3, 2nd time column (time not given)
[9] = n = 3, 4th time column (time not given)

CNCCC(Oc1ccc(C(F)(F)F)cc1)c1ccc([125I])cc1 (racemic) [Compound 15, iodo-fluoxetine]
regional distribution pattern in rat brain sections, effect of paroxetine pretreatment (rat brain sections): not altered by pretreatment of paroxetine | non-specific binding [1]: strong non-specific binding | initial brain uptake ([2]; 2 min.): 0.68 % dose/organ | brain retention ([2]; 8 hr.): 0.63 % dose/organ | Biodistribution, Blood ([2]; 2 min.): 3.03 ± 0.40 % dose/organ | Biodistribution, Brain ([2]; 2 min.): 0.61 ± 0.12 % dose/organ | Biodistribution, Heart ([2]; 2 min.): 2.27 ± 0.31 % dose/organ | Biodistribution, Kidney ([2]; 2 min.): 4.16 ± 0.36 % dose/organ | Biodistribution, Liver ([2]; 2 min.): 15.92 ± 2.41 % dose/organ | Biodistribution, Lung ([2]; 2 min.): 11.09 ± 2.32 % dose/organ | Biodistribution, Muscle ([2]; 2 min.): 12.71 ± 5.3 % dose/organ | Biodistribution, Skin ([2]; 2 min.): 4.90 ± 0.50 % dose/organ | Biodistribution, Spleen ([2]; 2 min.): 0.61 ± 0.06 % dose/organ | Biodistribution, Thyroid ([2]; 2 min.): 0.10 ± 0.04 % dose/organ | Biodistribution, Blood ([2]; 15 min.): 1.71 ± 0.31 % dose/organ | Biodistribution, Brain ([2]; 15 min.): 0.68 ± 0.02 % dose/organ | Biodistribution, Heart ([2]; 15 min.): 1.14 ± 0.04 % dose/organ | Biodistribution, Kidney ([2]; 15 min.): 4.05 ± 0.44 % dose/organ | Biodistribution, Liver ([2]; 15 min.): 16.27 ± 2.35 % dose/organ | Biodistribution, Lung ([2]; 15 min.): 6.77 ± 0.25 % dose/organ | Biodistribution, Muscle ([2]; 15 min.): 16.01 ± 4.55 % dose/organ | Biodistribution, Skin ([2]; 15 min.): 5.84 ± 0.95 % dose/organ | Biodistribution, Spleen ([2]; 15 min.): 0.93 ± 0.15 % dose/organ | Biodistribution, Thyroid ([2]; 15 min.): 0.07 ± 0.03 % dose/organ | Biodistribution, Blood ([2]; 60 min.): 3.16 ± 0.36 % dose/organ | Biodistribution, Brain ([2]; 60 min.): 0.78 ± 0.01 % dose/organ | Biodistribution, Heart ([2]; 60 min.): 0.43 ± 0.05 % dose/organ | Biodistribution, Kidney ([2]; 60 min.): 2.32 ± 0.38 % dose/organ | Biodistribution, Liver ([2]; 60 min.): 17.64 ± 1.88 % dose/organ | Biodistribution, Lung ([2]; 60 min.): 7.32 ± 0.45 % dose/organ | Biodistribution, Muscle ([2]; 60 min.): 22.63 ± 4.48 % dose/organ | Biodistribution, Skin ([2]; 60 min.): 10.76 ± 2.85 % dose/organ | Biodistribution, Spleen ([2]; 60 min.): 1.20 ± 0.13 % dose/organ | Biodistribution, Thyroid ([2]; 60 min.): 0.08 ± 0.01 % dose/organ | Biodistribution, Blood ([2]; 120 min.): 3.62 ± 0.24 % dose/organ | Biodistribution, Brain ([2]; 120 min.): 0.84 ± 0.073 % dose/organ | Biodistribution, Heart ([2]; 120 min.): 0.48 ± 0.02 % dose/organ | Biodistribution, Kidney ([2]; 120 min.): 1.82 ± 0.21 % dose/organ | Biodistribution, Liver ([2]; 120 min.): 11.55 ± 0.78 % dose/organ | Biodistribution, Lung ([2]; 120 min.): 7.21 ± 0.36 % dose/organ | Biodistribution, Muscle ([2]; 120 min.): 24.22 ± 0.68 % dose/organ | Biodistribution, Skin ([2]; 120 min.): 10.08 ± 0.78 % dose/organ | Biodistribution, Spleen ([2]; 120 min.): 1.09 ± 0.07 % dose/organ | Biodistribution, Thyroid ([2]; 120 min.): 0.10 ± 0.02 % dose/organ | Biodistribution, Blood ([2]; 240 min.): 4.99 ± 0.70 % dose/organ | Biodistribution, Brain ([2]; 240 min.): 0.70 ± 0.031 % dose/organ | Biodistribution, Heart ([2]; 240 min.): 0.28 ± 0.01 % dose/organ | Biodistribution, Kidney ([2]; 240 min.): 1.18 ± 0.17 % dose/organ | Biodistribution, Liver ([2]; 240 min.): 11.52 ± 0.91 % dose/organ | Biodistribution, Lung ([2]; 240 min.): 7.57 ± 2.36 % dose/organ | Biodistribution, Muscle ([2]; 240 min.): 20.38 ± 2.67 % dose/organ | Biodistribution, Skin ([2]; 240 min.): 8.27 ± 0.75 % dose/organ | Biodistribution, Spleen ([2]; 240 min.): 0.71 ± 0.11 % dose/organ | Biodistribution, Thyroid ([2]; 240 min.): 0.14 ± 0.001 % dose/organ | Biodistribution, Blood ([2]; 480 min.): 7.61 ± 1.11 % dose/organ | Biodistribution, Brain ([2]; 480 min.): 0.61 ± 0.07 % dose/organ | Biodistribution, Heart ([2]; 480 min.): 0.32 ± 0.03 % dose/organ | Biodistribution, Kidney ([2]; 480 min.): 1.11 ± 0.06 % dose/organ | Biodistribution, Liver ([2]; 480 min.): 16.47 ± 2.03 % dose/organ | Biodistribution, Lung ([2]; 480 min.): 5.00 ± 0.46 % dose/organ | Biodistribution, Muscle ([2]; 480 min.): 19.90 ± 2.61 % dose/organ | Biodistribution, Skin ([2]; 480 min.): 10.78 ± 0.07 % dose/organ | Biodistribution, Spleen ([2]; 480 min.): 0.52 ± 0.048 % dose/organ | Biodistribution, Thyroid ([2]; 480 min.): 0.22 ± 0.06 % dose/organ | initial heart uptake ([2]; rats, 2 min. post injection): 2.3% | heart uptake ([2]; rats, 8 hr. post injection): 0.3%

CN[C@@H]1C[C@H](c2ccc(Cl)c(Cl)c2)c2ccccc21 (relative stereo) [Indatraline cis, Indatraline]
Ki [3]: 34 nM | Ki [4]: 860 nM | Ki [5]: 0.03 nM

CN[C@@H]1C[C@@H](c2ccc(Cl)c(Cl)c2)c2ccccc21 (relative stereo) [Indatraline trans, Indatraline]
Ki [3]: 90 nM | Ki [4]: 2000 nM | Ki [5]: 0.58 nM

CNCC[C@@H](Oc1cccc(I)c1)c1ccccc1 [Compound 4, [R]-(-)-N-Methyl-3-phenyl-3-(3-iodophenoxy)propylamine]
IC50 [6]: 500 nM | Ki (serotonin reuptake sites): 0.8 nM

CNCC[C@@H](Oc1ccc(I)cc1C)c1ccccc1.Cl [Compound 7, [R]-(-)-N-Methyl-3-phenyl-3-(4-iodo-2-methylphenoxy)propylamine hydrochloride]
Biodistribution, Blood [7, 8]: 2.19 ± 0.32 % dose/organ | Biodistribution, Brain [7, 8]: 0.80 ± 0.04 % dose/organ | Biodistribution, Heart [7, 8]: 0.55 ± 0.04 % dose/organ | Biodistribution, Kidney [7, 8]: 2.70 ± 0.48 % dose/organ | Biodistribution, Lung [7, 8]: 9.36 ± 1.52 % dose/organ | Biodistribution, Skin [7, 8]: 6.75 ± 1.35 % dose/organ | Biodistribution, Spleen [7, 8]: 1.09 ± 0.32 % dose/organ | Biodistribution, Thyroid [7, 8]: 0.07 ± 0.02 % dose/organ | Biodistribution, Blood [7, 9]: 2.39 ± 0.33 % dose/organ | Biodistribution, Brain [7, 9]: 0.68 ± 0.01 % dose/organ | Biodistribution, Kidney [7, 9]: 1.12 ± 0.44 % dose/organ | Biodistribution, Lung [7, 9]: 6.81 ± 0.76 % dose/organ | Biodistribution, Skin [7, 9]: 6.92 ± 0.83 % dose/organ | Biodistribution, Spleen [7, 9]: 0.79 ± 0.05 % dose/organ | brain uptake ([7]; throughout the two hour period): 0.64-0.84 % dose/organ | IC50 [6]: 20 nM | Ki (serotonin reuptake sites): 5 nM

CNCC[C@H](Oc1cccc(I)c1)c1ccccc1 [Compound 11, [S]-(+)-N-Methyl-3-phenyl-3-(3-iodophenoxy)propylamine]
IC50 [6]: 7000 nM | Ki (serotonin reuptake sites; rat brain tissue preparation, [3H]-Paroxetine, read-out: Serotonin Uptake [3H]-Paroxetine Ki): 8.2 nM

CNCC[C@H](Oc1ccc(I)cc1C)c1ccccc1 [Compound 14, {S}-(+)-N-Methyl-3-phenyl-3-(4-iodo-2-methylphenoxy)propylamine hydrochloride]
IC50 [6]: 9 nM | Ki (serotonin reuptake sites): 0.8 nM

CNCCC(Oc1ccc(C(F)(F)F)cc1)c1ccccc1 (stereo not shown) [Fluoxetine]
Ki [4]: 1590 nM

CNCCC(Oc1ccccc1OC)c1ccccc1 (stereo not shown) [Nisoxetine]
Ki [3]: 670 nM | Ki ([4]; rat synaptosomes): 365 nM | Ki ([5]; rat synaptosomes): 3.8 nM

Fc1ccc([C@@H]2CCNC[C@H]2COc2ccc3c(c2)OCO3)cc1 [Paroxetine]
Ki [3]: 350 nM

CN[C@@H]1CC[C@@H](c2ccccc2)c2ccccc21 [Tametraline]
Ki [3]: 20 nM | Ki ([4]; rat synaptosomes): 60 nM | Ki ([5]; rat synaptosomes): 50 nM
